Measured values from patent US20050038058A1, “Novel compounds and methods for therapy” (Institute of Organic Chemistry and Biochemistry, priority 2001, published 2005).
Converted amounts (≈) assume the structure as drawn. Read-outs that look alike come from different tables or passages of the source.

Columns and labels:
[1] = test system: HIV-1(IIIB); assay: HIV-1(IIIB) p24 antigen production in PBL (PHA-stimulated PBMC); format: cell-based; conditions: for EC50: Human immunodeficiency virus 1, IIIB, PBMC
Protocol: Peripheral blood mononuclear cells (PBMC) from healthy donors were isolated by density centrifugation (Lymphoprep; Nycomed Pharma, AS Diagnostics, Oslo, Norway) and stimulated with phytohemagglutin (PHA) (Sigma Chemical Co., Bornem, Belgium) for 3 days. The activated cells (PHA-stimulated blasts) were washed with PBS and viral infections were done as described by the AIDS clinical trial group protocols. Briefly, PBMCs (2×10^5/200 well) were plated in the presence of serial dilutions of the test compound and were infected with HIV stocks at 1000 CCID50 per mL. At day 4 post-infection, 125 μl of the supernatant of the infected cultures was removed and replaced with 150 μl of fresh medium containing the test compounds at the appropriate concentrations. At 7 days after plating the cells, p24 antigen was detected in the culture supernatant by an enzyme-linked immunosorbent assay (NEN, Paris, France).

[2] = Cell viability in PBL; format: cell-based; conditions: human, reduction of cell viability, Table 2
[3] = Cell viability in monocyte/macrophages (M/M); format: cell-based, human; conditions: human
[4] = Toxicity in CrFK cells; format: cell-based, feline; conditions: cat, Table 2
[5] = test system: CEM cells; assay: Inhibition of CEM cell growth (cytostatic activity); format: cell-based
Method in brief: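 MT-4 cells (5×10^4/well) exposed to compound dilutions for 5 days at 37 °C; CC50 = concentration cutting living cells by 50%, counted microscopically with trypan blue exclusion. CEM cytostatic CC50 defined likewise, by a previously described method.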

[6] = test system: MT-4 cells; assay: MT-4 cell toxicity (trypan blue exclusion); format: cell-based; conditions: reduction of cell viability; Table 2
Protocol: Cytostatic and antimetabolic effect of acyclic nucleoside phosphonates in vitro. The assays to examine the inhibition of CEM cell growth by the test compounds have been described previously (Balzarini et al., AIDS 5:21-28, 1991). The 50% cytostatic concentration (CC50) was defined as the concentration of compound that reduced the number of living cells by 50% . To measure MT-4 cell toxicity of the test compounds, 5×10^4 MT-4 cells were incubated in the wells of 96-well microplates in the presence or absence of different concentrations of the test compounds for 5 days at 37° C. The CC50 was then calculated from the number of living cells counted under a microscope by the trypan blue exclusion method.

[7] = test system: PBL; assay: Cell viability in PBL; format: cell-based; conditions: reduction of cell viability; Table 2
[8] = test system: monocyte/macrophages (M/M); assay: Cell viability in monocyte/macrophages (M/M); format: cell-based, human; conditions: reduction of cell viability; Table 2
[9] = test system: CrFK cells; assay: Toxicity in CrFK cells; format: cell-based, feline; conditions: Table 2
[10] = test system: HSV-1 (KOS); assay: Antiviral activity, HSV-1 (KOS), Table 1a; format: cell-based
[11] = test system: HSV-2 (G); assay: Antiviral activity, HSV-2 (G), Table 1a; format: cell-based
[12] = test system: HSV-1 TK- VMW 1837; assay: Antiviral activity, HSV-1 TK- VMW 1837, Table 1a; format: cell-based
[13] = test system: CMV AD-169; assay: Antiviral activity, CMV AD-169, Table 1a; format: cell-based
[14] = test system: CMV Davis; assay: Antiviral activity, CMV Davis, Table 1a; format: cell-based
[15] = test system: VZV TK + OKA; assay: Antiviral activity, VZV TK+ OKA, Table 1a; format: cell-based
[16] = test system: VZV TK + YS; assay: Antiviral activity, VZV TK+ YS, Table 1a; format: cell-based
[17] = test system: VZV TK − 07/1; assay: Antiviral activity, VZV TK- 07/1, Table 1a; format: cell-based
[18] = test system: VZV TK − YS/R; assay: Antiviral activity, VZV TK- YS/R, Table 1a; format: cell-based
[19] = test system: MSV; assay: Antiviral activity, MSV, Table 1a; format: cell-based
[20] = test system: HIV-2; assay: Antiviral activity, HIV-2, Table 1a; format: cell-based
[21] = test system: HIV-1
[22] = p24 antigen production, Table 2, read-out: EC50 HIV-1 (IIIB) (PBL)
[23] = read-out: EC50 HIV-1(IIIB) in PBL
[24] = 50% cytostatic concentration, CEM cell proliferation, Table 1
[25] = inhibition of cell proliferation, Table 2

SMILES	EC50 [1, 22] [µg/mL]	EC50 [1, 23] [µg/mL]	CC50 ([4]; CrFK cells) [µg/mL]	EC50 HIV-1(IIIB) in PBL [1] [µg/mL]	CC50 (CEM) [5, 24] [µg/mL]	CC50 (CEM) [5, 25] [µg/mL]	CC50 MT-4 [6]	CC50 PBL [7] [µg/mL]	CC50 M/M [8] [µg/mL]	CC50 CrFK [9] [µg/mL]	further results
Nc1cc(OCCOCP(=O)(O)O)nc(N)n1 [Compound 1, 2,4-diamino-6-[2-(phosphonomethoxy)ethoxy]pyrimidine]	0.07 ± 0.02 (≈ 0.265 µM)	0.07 (≈ 0.265 µM)	11 (≈ 41.6 µM)	–	–	–	–	–	–	–	CC50 ([2]; PHA-stimulated peripheral blood mononuclear cells (PBL)): 2.2 ± 0.8 µg/mL (≈ 8.33 µM); CC50 [3]: > 100 µg/mL
C[C@H](Cn1cnc2c(N)ncnc21)OCP(=O)(O)O [(R)-PMPA, (R)-9-[(2-phosphonomethoxy)-propyl]adenine, reference compound]	–	–	–	0.33 (≈ 1.15 µM)	125 (≈ 435 µM)	125 ± 26 (≈ 435 µM)	72 ± 12 µg/mL (≈ 251 µM)	>100	>100	>100	EC50 HIV-1 (IIIB) (PBL) ([1]; p24 antigen production, Table 2): 0.09 ± 0.03 µg/mL (≈ 0.313 µM)
Nc1ncnc2c1ncn2CCOCP(=O)(O)O [PMEA, 9-[(2-phosphono-methoxy)ethyl]adenine, reference compound]	0.55 ± 0.41 (≈ 2.01 µM)	1.9 (≈ 6.95 µM)	–	–	–	–	–	–	–	–	CC50 [2]: 1.7 ± 0.4 µg/mL (≈ 6.22 µM); CC50 ([3]; reduction of cell viability, Table 2, read-out: CC50 M/M): > 100 µg/mL; CC50 [4]: 18 µg/mL (≈ 65.9 µM)
C[C@H](COc1cc(N)nc(N)n1)OCP(=O)(O)O [Compound 11, 2,4-diamino-6-(R)-[2-(phosphonomethoxy)propoxy]pyrimidine]	–	–	–	0.12 (≈ 0.431 µM)	62 (≈ 223 µM)	62 ± 25 (≈ 223 µM)	≧100 μg/ml	9.6 ± 2.5 (≈ 34.5 µM)	>100	>100	Antiviral Activity EC50 HSV-1 (KOS) [10]: 16 µg/mL; Antiviral Activity EC50 HSV-2 (G) [11]: 48 µg/mL; Antiviral Activity EC50 HSV-1 TK- VMW 1837 [12]: 9.6 µg/mL; Antiviral Activity EC50 CMV AD-169 [13]: >50 µg/mL; Antiviral Activity EC50 CMV Davis [14]: >50 µg/mL; Antiviral Activity EC50 VZV TK + OKA [15]: 3.8 µg/mL; Antiviral Activity EC50 VZV TK + YS [16]: 5.9 µg/mL; Antiviral Activity EC50 VZV TK − 07/1 [17]: 6.3 µg/mL; Antiviral Activity EC50 VZV TK − YS/R [18]: 5.7 µg/mL; Antiviral Activity EC50 MSV [19]: 0.05 µg/mL; Antiviral Activity EC50 HIV-2 [20]: 1.3 µg/mL; CC50 for CEM cells [5]: around 60 μg/mL; Antiviral Activity EC50 HIV-1 [21]: 1.9 µg/mL
Nc1cc(SCCOCP(=O)(O)O)nc(N)n1 [Compound 2, 2,4-diamino-6-{[2-(phosphonomethoxy)ethyl]-sulfanyl}pyrimidine]	–	–	42 (≈ 150 µM)	–	–	–	–	–	–	–	–
